Patent US20230219886A1, “NOVEL SELENO-NSAID ANALOGS AND USES THEREOF” (THE PENN STATE RESEARCH FOUNDATION, priority 2020, published 2023)
Where two headings read alike, the source gives them in different places.

What was measured:
[1] = system: PANC-1 (pancreatic carcinoma); assay: MTT cell viability assay, Panc-1; settings: Homo sapiens, PANC-1, 48 h, read-out: cell viability
Description: (§1) Cell Culture Conditions. The cell lines were obtained from the American Type Culture Collection (ATCC). PANC-1 and Caco-2 cell lines were maintained in DMEM medium (Gibco); HT-29, HCT-116 and RKO cells were maintained in McCoy's 5A medium (Gibco); and DU-145 and H1299 cells were maintained in RPMI 1640 medium (Gibco), supplemented with 10% fetal bovine serum (FBS; Gibco) and 1% antibiotics (10.00 units/mL penicillin and 10.00 mg/mL streptomycin; Gibco). Cells were preserved in tissue culture flasks at 37° C. and 5% CO2. Culture medium was replaced every three days.
(§2) Cell Viability Assay. The effect of each compound on cell viability was tested using the MTT assay (81). Briefly, 9000 cells/well were grown in 96-well plates for 12 h. Then these cells were incubated with either DMSO (control) or nine different concentration between 0.01-50 μM of the test compounds for 24, 48, and 72 h. Three hours before the termination point, 20 μL of MTT were added to measure cellular viability. The resultant formazan crystals were dissolved in 50 μL of DMSO, and absorbance was measured at 570 nm and 630 nm wavelengths. IC50, GI50, TGI and LC50 values were calculated using OriginPro 8.5.1.
(§3) Evaluation of the antiproliferative activities of the novel molecules. […] These four cell lines were treated with each compound at three concentrations (5, 25 and 50 μM) for 48 h.

HT-29 (CRC) = assay: MTT cell viability assay, HT-29; settings: for GI50 / IC50 / viability at 5 µM / viability at 25 µM / viability at 50 µM: Homo sapiens; for viability at 5 µM / viability at 25 µM / viability at 50 µM: read-out: cell viability
Description: as §1, §2, §3

[2] = system: DU-145 (prostate carcinoma); assay: MTT cell viability assay, DU-145; settings: Homo sapiens, DU-145, 48 h, read-out: cell viability
Description: as §1, §2, §3

H1299 (lung carcinoma) = assay: MTT cell viability assay, H1299; settings: Homo sapiens, NCI-H1299, 48 h, read-out: cell viability
Description: as §1, §2, §3

HCT-116 CRC cells = assay: MTT cell viability assay, HCT-116; type: cell-based, human; settings: Homo sapiens
Description: as §1, §2

CACO-2 CRC cells = assay: cells; settings: for IC50: Homo sapiens
Description: as §1, §2

RKO CRC cells = assay: cells; settings: Homo sapiens
Description: as §1, §2

SMILES	viability at 5 µM [1]	viability at 25 µM [1]	viability at 50 µM [1]	IC50 (HT-29 (CRC); HT-29, 24 h)	IC50 (HT-29 (CRC); HT-29, 48 h)	viability at 5 µM (HT-29 (CRC); HT-29, 48 h)	viability at 25 µM (HT-29 (CRC); HT-29, 48 h)	viability at 50 µM (HT-29 (CRC); HT-29, 48 h)	IC50 (HT-29 (CRC); HT-29, 72 h)	viability at 5 µM [2]	viability at 25 µM [2]	viability at 50 µM [2]	viability at 5 µM (H1299 (lung carcinoma))	viability at 25 µM (H1299 (lung carcinoma))	viability at 50 µM (H1299 (lung carcinoma))	IC50 (CACO-2 CRC cells; Caco-2, 24 h)	IC50 (CACO-2 CRC cells; Caco-2, 48 h)	IC50 (CACO-2 CRC cells; Caco-2, 72 h)	IC50 (RKO CRC cells; 24 h)	IC50 (RKO CRC cells; 48 h)	also measured
CC(=O)Oc1ccccc1C(=O)O [ASA, aspirin, reference compound]	86.7 ± 5.4%	63.8 ± 3.1%	68.6 ± 5.1%	> 50 µM	> 50 µM	73.1 ± 13%	57.2 ± 11.3%	35.5 ± 7.7%	> 50 µM	89.8 ± 11%	85.3 ± 25.1%	90.9 ± 24.6%	44.1 ± 4.4%	51.1 ± 1.6%	58.3 ± 3.6%	> 50 µM	> 50 µM	> 50 µM	> 50 µM	> 50 µM	TGI (HT-29 (CRC); HT-29, 24 h): >50 µM; TGI (HT-29 (CRC); HT-29, 48 h): >50 µM; TGI (HT-29 (CRC); HT-29, 72 h): >50 µM; GI50 (HT-29 (CRC); HT-29, 24 h): > 50 µM; GI50 (HT-29 (CRC); HT-29, 48 h): > 50 µM; GI50 (HT-29 (CRC); HT-29, 72 h): > 50 µM; IC50 (HCT-116 CRC cells; HCT-116, 24 h, read-out: IC50): > 50 µM; IC50 (HCT-116 CRC cells; HCT-116, 48 h, read-out: IC50): > 50 µM; IC50 (HCT-116 CRC cells; HCT-116, 72 h, read-out: IC50): > 50 µM; IC50 (RKO CRC cells; 72 h): > 50 µM
CC[Se]C(=O)c1ccccc1OC(C)=O [Compound 1b, 2-((ethylselanyl)carbonyl)phenyl acetate]	–	–	–	> 50 µM	4.2 ± 0.4 µM	–	–	–	4.2 ± 0.9 µM	–	–	–	–	–	–	> 50 µM	> 50 µM	> 50 µM	> 50 µM	> 50 µM	IC50 (HCT-116 CRC cells; HCT-116, 24 h, read-out: IC50): > 50 µM; IC50 (HCT-116 CRC cells; HCT-116, 48 h, read-out: IC50): 13.2 ± 2.6 µM; IC50 (HCT-116 CRC cells; HCT-116, 72 h, read-out: IC50): 6.8 ± 4.2 µM; effect on CACO-2 viability (CACO-2 CRC cells; Caco-2): no effect; IC50 (RKO CRC cells; 72 h): > 50 µM
CC(=O)Oc1ccccc1C(=O)[Se]Cc1ccccc1 [Compound 1c, 2-((benzylselanyl)carbonyl)phenyl acetate]	–	–	–	> 50 µM	4.8 ± 0.2 µM	–	–	–	4.8 ± 0.1 µM	–	–	–	–	–	–	> 50 µM	> 50 µM	11.8 ± 5.9 µM	> 50 µM	10.4 ± 0.1 µM	IC50 (HCT-116 CRC cells; HCT-116, 24 h): > 50 µM; IC50 (HCT-116 CRC cells; HCT-116, 48 h): 8 ± 2.1 µM; IC50 (HCT-116 CRC cells; HCT-116, 72 h): 8.2 ± 2.2 µM; IC50 (RKO CRC cells; 72 h): 5 ± 0.1 µM
C[Se]C(=O)c1cc(-c2ccc(F)cc2F)ccc1O [Compound 2a, Se-methyl 2′,4′-difluoro-4-hydroxy-[1,1′-biphenyl]-3-carboselenoate]	53.5 ± 9.7%	38.5 ± 8.1%	39.1 ± 11.1%	–	–	46.6 ± 11.9%	23.5 ± 7.2%	28.4 ± 2.7%	–	53.9 ± 14.1%	40.7 ± 8.3%	39.5 ± 2.7%	96.8 ± 19.8%	80 ± 10.7%	79.9 ± 9%	–	–	–	–	–	–
COc1ccc2cc([C@H](C)C(=O)[Se]C)ccc2c1 [Compound 3a, Se-methyl (S)-2-(6-methoxynaphthalen-2-yl)propaneselenoate]	46.7 ± 9.7%	34.4 ± 6.3%	30.5 ± 6%	–	–	52.2 ± 30.9%	41.8 ± 26.4%	46.4 ± 24.7%	–	56.2 ± 18.4%	35 ± 16.1%	31.4 ± 23.6%	48.3 ± 5.4%	42.4 ± 2.7%	34.3 ± 1.3%	–	–	–	–	–	–
C[Se]C(=O)c1ccccc1Nc1cccc(C)c1C [Compound 4a, Se-methyl 2-((2,3-dimethylphenyl)amino)benzoselenoate]	47.5 ± 5.9%	26.3 ± 3.9%	22.6 ± 3%	–	–	41.6 ± 6.4%	16.6 ± 4.7%	22.6 ± 0.7%	–	58 ± 14.1%	29.7 ± 10.9%	32 ± 6.5%	98.7 ± 0.4%	99.4 ± 0.3%	100%	–	–	–	–	–	–
